Article PMC9103596, “The inhibitory effect of boric acid on hypoxia-regulated tumour-associated carbonic anhydrase IX” (Journal of Enzyme Inhibition and Medicinal Chemistry, 2022)
Where two headings read alike, the source gives them in different places.

What was measured:
[1] = tested on: CA IX levels in HT29 cells; details: treated at IC50 concentration for 24 h, ELISA
Description: Cells were incubated at 37 °C and 5% CO2 in 25cm[3] flasks. On reaching 80–90% confluence, cell harvesting was performed by washing cells in phosphate-buffered saline (PBS) and then detached from the flask surface using trypsin-EDTA. Cell count was determined using a hematocytometer. Two separate cultures each for both HT29 and A375 were grown, one under normoxic conditions and the second one under hypoxic conditions. The normoxic cultures for HT29 and A375 were grown and incubated at normoxic conditions (37 °C and 5% CO2). […] The hypoxic chamber was placed in a 37 °C incubator for 4 h. Hypoxia conditions were confirmed by detecting HIF-1α protein level by using an ELISA kit (Shangai Koon, Shanghai, China).
HT29 and A375 cells were seeded 0.3 × 10^6 cells/well into two separate six-well plates. On each well-plate, one column was treated with BA, the second was treated with AZA, and the third column was left untreated, serving as a control. […] The plates were then set aside to incubate for 24 h under normoxic conditions (37 °C and 5% CO2).
The lysates were collected by centrifugation at 13,000 × g for 15 min at 4 °C. […] These protein levels were determined by using CA IX ELISA kit and HIF1α ELISA kit according to the manufacturer’s instructions. […] Of 50 µL of the stop solution was then added and the microplates were read at 450 nm using the Epoch micro-plate reader (BioTek, Cambridge, MA).

[2] = target: hCA XII (Homo sapiens, UniProt O43570); details: read-out: KI hCA XII; stopped-flow CO2 hydrase assay, mean from three assays
Description: (§1) The uncatalysed rates were determined in the same manner and subtracted from the total observed rates. Stock solutions of BA (or other inhibitors) (100 mM) were prepared in distilled – deionised water, and dilutions up to 0.01 nM were done thereafter with the assay buffer. Inhibitor and enzyme solutions were preincubated together for 6 h at room temperature prior to assay in order to allow for the formation of the E–I complex. The inhibition constants were obtained by nonlinear least-squares methods using PRISM 3 and the Cheng–Prusoff equation, as reported earlier, and represent the mean from at least three different determinations.

[3] = target: hCA I (Homo sapiens, UniProt P00915); details: read-out: KI hCA I; stopped-flow CO2 hydrase assay, mean from three assays
Description: as §1

[4] = target: hCA II (Homo sapiens, UniProt P00918); details: read-out: KI hCA II; stopped-flow CO2 hydrase assay, mean from three assays
Description: as §1

[5] = target: hCA IX (Homo sapiens, UniProt Q16790); details: read-out: KI hCA IX
Description: as §1

[6] = tested on: androgen-sensitive LNCaP prostate cancer cells; details: nude mice injected with LNCaP cells, treated with BA; cited from earlier work
[7] = tested on: CA IX levels in A375 cells; details: treated at IC50 concentration for 24 h, ELISA
Description: (§2) Cells were incubated at 37 °C and 5% CO2 in 25cm[3] flasks. On reaching 80–90% confluence, cell harvesting was performed by washing cells in phosphate-buffered saline (PBS) and then detached from the flask surface using trypsin-EDTA. Cell count was determined using a hematocytometer. Two separate cultures each for both HT29 and A375 were grown, one under normoxic conditions and the second one under hypoxic conditions. The normoxic cultures for HT29 and A375 were grown and incubated at normoxic conditions (37 °C and 5% CO2). […] The hypoxic chamber was placed in a 37 °C incubator for 4 h.
(§3) WST-1 reagent was used to measure mitochondrial dehydrogenase activity and determine cell viability. A 0.5 M stock of B(OH)3 was prepared by dissolving 0.309 g of B(OH)3 in 10 ml of distilled water. HT29 and A375 cells were seeded on 96-well plates and incubated for 24 h, allowing them to adhere to the wells before treatment with B(OH)3. Cells were then treated with 2.5, 5, 10, 25 50, 100, and 200 mM B(OH)3 and topped to 100 µL with a prepared cell medium (one well remaining as an untreated, negative control). The plates were then incubated for 24 and 48 h periods. After each period, […] WST-1 reagent was added to each well and then the plate was incubated for another 3–4 h at 37 °C with 5% CO2. The plates were read by using an Epoch microplate reader (BioTek, Cambridge, MA) with a wavelength of 450 nm. The results were analysed by using GraphPad Prism version 9 (Graphpad Software Inc., La Jolla, CA), for determining the IC50 values, with AZA as standard CA inhibitor. HT29 and A375 cells were seeded 0.3 × 10^6 cells/well into two separate six-well plates. On each well-plate, one column was treated with BA, the second was treated with AZA, and the third column was left untreated, serving as a control.

[8] = tested on: HT29 (human colon cancer) cells; details: read-out: IC50 cell viability
Description: as §2, §3

[9] = tested on: A375 (human malignant melanoma) cells; details: read-out: IC50 cell viability; A375, WST-1, 48 h
Description: as §2, §3

hCA I, sequence (P00915 whole entry): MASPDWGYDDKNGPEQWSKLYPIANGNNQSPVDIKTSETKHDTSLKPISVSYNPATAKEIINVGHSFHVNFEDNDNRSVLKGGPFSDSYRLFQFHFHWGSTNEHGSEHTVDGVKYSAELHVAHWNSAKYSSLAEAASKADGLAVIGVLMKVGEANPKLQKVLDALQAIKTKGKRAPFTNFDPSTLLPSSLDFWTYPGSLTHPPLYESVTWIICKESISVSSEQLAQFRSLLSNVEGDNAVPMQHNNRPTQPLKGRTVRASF
hCA XII, sequence (O43570 25-354): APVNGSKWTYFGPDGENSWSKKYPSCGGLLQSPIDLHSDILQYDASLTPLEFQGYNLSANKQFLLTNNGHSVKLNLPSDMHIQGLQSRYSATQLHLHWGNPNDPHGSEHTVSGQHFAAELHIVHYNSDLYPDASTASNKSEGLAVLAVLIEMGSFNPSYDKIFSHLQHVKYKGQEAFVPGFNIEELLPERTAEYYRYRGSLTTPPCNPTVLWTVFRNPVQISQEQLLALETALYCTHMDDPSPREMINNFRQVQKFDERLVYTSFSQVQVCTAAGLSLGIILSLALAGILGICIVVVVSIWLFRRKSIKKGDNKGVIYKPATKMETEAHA

OB(O)O [Boric acid]
CA IX levels compared to control ([1]; HT29 hypoxic cell cultures): increase | CA IX levels compared to control ([1]; HT29 normoxic cell cultures): slight increase | Ki [2]: 6.2 mM | Ki [3]: 29.9 mM | Ki [4]: 41 mM | Ki [5]: 2.8 mM | decrease in plasma PSA levels [6]: 88% | decrease in tumour growth [6]: 25 − 35% | CA IX levels compared to control ([7]; A375 hypoxic cell cultures): significantly reduced | CA IX levels compared to control ([7]; A375 normoxic cell cultures): significantly reduced | IC50 ([8]; HT29, WST-1, 24 h): 19.6 mM | IC50 ([8]; HT29, WST-1, 48 h): 23 mM | IC50 [9]: 15.5 mM
